{"source": "patent US11154470B1", "about": "“Anti-inflammatory and senolytic dental care product with tooth whitening characteristics” (Credentis AG, priority 2020, dated 2021)", "experiment": "Tooth whitening: colour change of tooth enamel measured with a dental spectrophotometer (L*a*b, ISO 28399)", "details": "peptide alone 7.5 mg/mL, without excipients; 24 h after application; 10 teeth, three measurements per tooth", "description": "Suspensions of oligopeptide 104 (5 mg/ml) with or without hydroxyapatite particles (average size d50≤300 nm (Horiba); 40-60% crystallinity, 25 wt %) were generated.\nThe suspensions were directly applied onto an enamel surface of a tooth, and residues washed off (10 sec). The specimen was stored in distilled water for 24 hours at 37° C. The procedure was repeated 3 times.\nThe tooth colour was measured with a dental spectrophotometer (VITA Easyshade). The illumination conditions were standardized with a black box as the background for the teeth during the measurement. The tip was applied perpendicular to the tooth surface and the average L*a*b-values from three repetitions were used for evaluations. Colour measurement were done at baseline ([…]), 24 hours after first application (t1), 24 hours after second application (t3), 24 hours after the third application (t4).\nThe mean changes of the L*a*b-values between different measurements in each group were expressed as […]E (according to ISO 28399).\nOligopeptide 104 was used in a concentration of 7.5 mg/mL, i.e., the concentration was higher than the concentration of peptide used in the application alone. ΔE was determined 24 h after application, with three measurements per tooth and 10 teeth examined. ΔE was 0.62. […]", "data": [{"sequence": "QQRFEWEFEQQ (P11-4 / oligopeptide 104)", "values": [{"measurement": "ΔE", "value": 0.62}]}]}
